In article PMC11558128 (Advanced Science, 2024):
Positions of bridges follow the written chain, without caps; N, C: chain ends. Residues, ends and D or L forms follow the SMILES beside them.

Legend:
[1] = system: other Kv channels (hKv1.1-1.5, rKv2.1, hKv3.1-3.4, mKv4.1, hKv7.2 and hERG)
rKv4.3 = molecular target: T1, rKv4.3 (Rattus norvegicus, UniProt Q62897); assay: cell-based; conditions: vs HNTX-III
T1 construct: expressed in transfected cells; host or cells: HEK293T
T1 sequence (Q62897 1-655): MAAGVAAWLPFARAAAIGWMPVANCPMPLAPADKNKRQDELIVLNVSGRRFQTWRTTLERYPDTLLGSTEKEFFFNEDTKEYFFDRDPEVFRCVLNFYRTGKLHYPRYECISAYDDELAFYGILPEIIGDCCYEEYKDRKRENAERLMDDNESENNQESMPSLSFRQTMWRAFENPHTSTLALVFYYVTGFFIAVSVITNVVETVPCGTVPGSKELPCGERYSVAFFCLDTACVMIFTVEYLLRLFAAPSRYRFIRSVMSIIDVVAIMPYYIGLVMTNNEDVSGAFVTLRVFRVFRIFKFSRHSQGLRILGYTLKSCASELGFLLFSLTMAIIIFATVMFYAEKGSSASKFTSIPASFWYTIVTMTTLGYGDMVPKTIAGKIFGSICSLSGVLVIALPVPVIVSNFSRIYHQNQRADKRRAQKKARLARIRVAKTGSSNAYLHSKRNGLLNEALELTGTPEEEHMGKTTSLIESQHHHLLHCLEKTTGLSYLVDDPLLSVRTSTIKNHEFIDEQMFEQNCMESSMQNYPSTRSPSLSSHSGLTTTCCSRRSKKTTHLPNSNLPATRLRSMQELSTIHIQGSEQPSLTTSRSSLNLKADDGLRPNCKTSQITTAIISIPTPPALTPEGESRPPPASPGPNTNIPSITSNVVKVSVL

hNav1.7 = molecular target: T2, hNav1.7 (Homo sapiens, UniProt Q15858); design: method as in 2 sources, one per row (each row's own in cited_ref): ref 11c (a number printed in a supplementary file, which may have a reference list of its own: not looked up in the article's list) ||| ref 11c = [11]; PMID 27129258; doi:10.1074/jbc.M116.725978; 11 a) G. L. Adams , P. S. Pall , S. M. Grauer , X. Zhou , J. E. Ballard , M. Vavrek , R. L. Kraus , P. Morissette , N. Li , S. Colarusso , E. Bianchi , A. Palani , R. Klein , C. T. John , D. Wang , M.; conditions: vs HNTX-III; ref 11c; cited from earlier work
T2 construct: expressed in transfected cells; host or cells: HEK293T

C57BL/6 mice [2] = assay: CFA-induced inflammatory pain model (von Frey paw withdrawal threshold); conditions: mouse, in vivo
Experimental: In the Complete Freund's adjuvant (CFA)–induced inflammatory pain modelinflammation is induced by injecting 15 µL of CFA into the intraplantar surface of the right hind paw of C57BL/6 mice (weight 18–20 g, 6–8 weeks, both sex).^[ [38] ^] Mechanical paw withdrawal thresholds are then measured using manual von Frey (Stoelting Co) after 2 days of CFA injection.

C57BL/6 mice [3] = assay: Spared nerve injury (SNI) neuropathic pain model; conditions: mouse, in vivo, ip
Experimental: In the spared nerve injury (SNI) neuropathic pain model,^[ [39] ^] C57BL/6 mice (weight 18–20 g, 6–8 weeks, both sex) were anesthetized with 3% halothane. The thigh was incised parallel to the femur, and the muscles were bluntly separated to expose the sciatic nerve. The sciatic nerve is ligated with 6.0 silk sutures. […] The paw withdrawal threshold to mechanical stimuli is measured between 0 and 180 min after drug administration.

T2 sequence (O60939 30-215): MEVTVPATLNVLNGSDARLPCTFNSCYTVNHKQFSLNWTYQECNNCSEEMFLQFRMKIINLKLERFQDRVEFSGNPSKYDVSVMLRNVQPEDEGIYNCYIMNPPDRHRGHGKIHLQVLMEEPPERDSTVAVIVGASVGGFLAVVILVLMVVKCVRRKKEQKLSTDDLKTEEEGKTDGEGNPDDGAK
T2 sequence (Q15858 other isoform, or with tags, fused parts or gaps): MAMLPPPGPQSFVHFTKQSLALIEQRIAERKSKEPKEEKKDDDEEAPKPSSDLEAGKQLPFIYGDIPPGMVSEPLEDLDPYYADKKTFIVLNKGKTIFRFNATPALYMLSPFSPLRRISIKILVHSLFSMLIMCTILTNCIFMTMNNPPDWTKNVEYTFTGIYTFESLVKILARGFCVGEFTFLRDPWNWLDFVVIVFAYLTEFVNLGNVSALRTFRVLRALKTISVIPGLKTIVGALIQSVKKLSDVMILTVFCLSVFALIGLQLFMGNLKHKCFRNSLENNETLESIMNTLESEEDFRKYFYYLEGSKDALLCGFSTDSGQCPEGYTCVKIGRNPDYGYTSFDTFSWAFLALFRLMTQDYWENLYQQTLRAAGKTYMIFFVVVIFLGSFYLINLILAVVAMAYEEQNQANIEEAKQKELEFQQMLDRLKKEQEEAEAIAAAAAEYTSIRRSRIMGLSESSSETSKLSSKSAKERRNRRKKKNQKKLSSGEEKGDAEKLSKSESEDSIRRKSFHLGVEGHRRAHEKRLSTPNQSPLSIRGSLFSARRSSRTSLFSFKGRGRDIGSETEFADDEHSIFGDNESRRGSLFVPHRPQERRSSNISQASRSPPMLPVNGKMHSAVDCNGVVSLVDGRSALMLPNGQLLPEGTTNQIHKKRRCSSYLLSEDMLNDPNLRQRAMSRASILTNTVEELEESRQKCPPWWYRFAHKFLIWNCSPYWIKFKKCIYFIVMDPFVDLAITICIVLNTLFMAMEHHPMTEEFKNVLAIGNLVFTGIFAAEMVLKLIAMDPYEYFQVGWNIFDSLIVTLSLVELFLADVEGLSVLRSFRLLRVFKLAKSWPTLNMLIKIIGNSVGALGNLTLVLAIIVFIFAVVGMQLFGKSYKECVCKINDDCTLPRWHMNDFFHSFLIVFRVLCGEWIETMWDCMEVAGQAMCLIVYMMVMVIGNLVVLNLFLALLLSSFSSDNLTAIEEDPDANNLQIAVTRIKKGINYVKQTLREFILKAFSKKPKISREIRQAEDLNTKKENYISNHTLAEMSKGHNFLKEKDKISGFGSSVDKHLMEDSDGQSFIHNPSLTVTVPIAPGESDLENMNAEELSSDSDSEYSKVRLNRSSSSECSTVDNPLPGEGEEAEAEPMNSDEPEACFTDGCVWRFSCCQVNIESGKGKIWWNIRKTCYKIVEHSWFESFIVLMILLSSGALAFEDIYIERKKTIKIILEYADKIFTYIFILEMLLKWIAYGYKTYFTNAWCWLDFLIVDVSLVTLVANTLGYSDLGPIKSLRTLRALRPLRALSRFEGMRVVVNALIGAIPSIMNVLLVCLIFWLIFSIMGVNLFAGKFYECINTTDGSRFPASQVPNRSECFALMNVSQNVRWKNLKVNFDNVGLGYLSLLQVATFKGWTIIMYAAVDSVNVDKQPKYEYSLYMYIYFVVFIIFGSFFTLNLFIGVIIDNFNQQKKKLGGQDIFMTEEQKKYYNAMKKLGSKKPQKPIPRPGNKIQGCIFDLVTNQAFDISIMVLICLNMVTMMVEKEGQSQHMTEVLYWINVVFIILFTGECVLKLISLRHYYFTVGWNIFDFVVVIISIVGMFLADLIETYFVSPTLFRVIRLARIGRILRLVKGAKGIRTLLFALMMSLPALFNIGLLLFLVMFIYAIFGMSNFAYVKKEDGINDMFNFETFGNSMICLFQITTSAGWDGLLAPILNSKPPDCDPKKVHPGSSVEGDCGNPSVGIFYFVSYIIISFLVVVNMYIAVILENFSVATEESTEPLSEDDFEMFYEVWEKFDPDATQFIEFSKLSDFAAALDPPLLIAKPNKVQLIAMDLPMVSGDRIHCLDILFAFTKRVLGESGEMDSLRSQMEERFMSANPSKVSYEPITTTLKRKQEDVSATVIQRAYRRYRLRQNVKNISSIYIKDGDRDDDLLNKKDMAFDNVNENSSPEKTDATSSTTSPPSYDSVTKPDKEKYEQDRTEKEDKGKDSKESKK
T2 sequence (Q07699 19-218, further chain): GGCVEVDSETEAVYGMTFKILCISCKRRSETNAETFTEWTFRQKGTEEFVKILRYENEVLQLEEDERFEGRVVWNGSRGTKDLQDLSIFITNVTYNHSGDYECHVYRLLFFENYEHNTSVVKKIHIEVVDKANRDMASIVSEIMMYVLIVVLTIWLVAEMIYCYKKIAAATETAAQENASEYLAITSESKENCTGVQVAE

Q: For `CC[C@H](C)[C@H](NC(=O)[C@H](CCCCN)NC(=O)[C@H](Cc1ccc(O)cc1)NC(=O)[C@H](CCCCN)NC(=O)[C@@H]1CSSC[C@@H]2NC(=O)[C@H](CCC(=O)O)NC(=O)[C@H](CC(=O)O)NC(=O)[C@H](CCCCN)NC(=O)CNC(=O)[C@@H]3CCCN3C(=O)[C@H]([C@@H](C)O)NC(=O)[C@@H]3CSSC[C@H](NC(=O)[C@H](C(C)C)NC(=O)[C@H](Cc4c[nH]cn4)NC(=O)[C@H](CC(N)=O)NC(=O)[C@@H]4CCCN4C(=O)[C@H](CSSC[C@H](NC(=O)[C@H](C)N)C(=O)N[C@@H](CCCCN)C(=O)NCC(=O)N[C@@H]([C@@H](C)CC)C(=O)N[C@@H](Cc4ccccc4)C(=O)N[C@@H](C(C)C)C(=O)N[C@@H]([C@@H](C)O)C(=O)N3)NC2=O)C(=O)N[C@@H](CO)C(=O)N[C@@H](CO)C(=O)N[C@@H](CCCCN)C(=O)N[C@@H](Cc2c[nH]cn2)C(=O)N[C@@H](CCCCN)C(=O)N[C@@H](Cc2c[nH]c3ccccc23)C(=O)N1)C(N)=O` [Cl6b] (H-ACKGIFVTCTPGKDECCPNHVCSSKHKWCKYKI-NH2; disulfide 2-17, 9-22, 16-29), which “effect on the current traces of other Kv channels” value [1] is on record?
A: no obvious or only minimal effect

Q: Which results are given for `CC(C)C[C@@H]1NC(=O)[C@H](Cc2ccc(O)cc2)NC(=O)[C@H](CC(N)=O)NC(=O)[C@H](CCCCN)NC(=O)[C@@H]2CSSC[C@H](NC(=O)CNC(=O)[C@@H](N)CCCCN)C(=O)N[C@@H](CCCCN)C(=O)NCC(=O)N[C@@H](Cc3ccccc3)C(=O)NCC(=O)N[C@@H](CC(=O)O)C(=O)N[C@@H](CO)C(=O)N[C@H]3CSSC[C@H](NC1=O)C(=O)N[C@@H](CO)C(=O)N[C@@H](CO)C(=O)N[C@@H](CCCCN)C(=O)N[C@@H](Cc1c[nH]cn1)C(=O)N[C@@H](CCCCN)C(=O)N[C@@H](Cc1c[nH]c4ccccc14)C(=O)N[C@H](C(=O)N[C@@H](CCCCN)C(=O)N[C@H](C(=O)N[C@@H](Cc1ccc(O)cc1)C(=O)N[C@@H](CC(C)C)C(=O)N[C@H](C(N)=O)C(C)C)C(C)C)CSSC[C@H](NC(=O)[C@H](CCC(=O)O)NC(=O)[C@H](CC(N)=O)NC(=O)[C@H](CCCCN)NC(=O)CNC(=O)[C@@H]1CCCN1C(=O)[C@H]([C@@H](C)O)NC3=O)C(=O)N2` [HNTX-III-H4] (H-KGCKGFGDSCTPGKNECCKNYLCSSKHKWCKVYLV-NH2; disulfide 3-18, 10-23, 17-30; N-terminus and C-terminus assumed)?
A: improved potency for rKv4.3 (rKv4.3): 45 fold; improved potency on hNav1.7 currents (hNav1.7): 30 fold

Q: Which “duration of anti-allodynic effect, CFA model” value (C57BL/6 mice [2]) does the source give for `CN1CC[C@]23c4c5ccc(O)c4O[C@H]2[C@@H](O)C=C[C@H]3[C@H]1C5` [morphine] here?
A: 2 h

Q: What about the “mechanical allodynia induced by SNI compared with the saline group” value (C57BL/6 mice [3]) of the same compound?
A: significantly decreased
